Experimental data as given in US9580398B2, “Compounds, compositions, and methods for modulating ferroptosis and treating excitotoxic disorders” (The Trustees of Columbia University in the City of New York, priority 2012, dated 2017).
Read-outs that look alike come from different tables or passages of the source. Where a SMILES comes first, the peptide text is derived from it. [ ]: non-standard residue; d: D form. The star is where a group is joined. Nle = CCCC[C@H](N)C(=O)O; Cbz = O=C(OCc1ccccc1)*; CH2F = FC*

Assays:
HT-1080 cells = assay: Erastin-induced death in HT-1080 cells with co-treated inhibitors (viability, microscopy); assay type: cell-based, human; settings: for protection from death on late addition / effect of co-treatment on erastin-induced death: HT-1080 cells; for protection from death on late addition: added up to 6 hours after erastin; for effect on erastin-induced ferroptosis (glutamine metabolism modulators): HT-1080 and BJeLR cells, media with glucose and Gln, AOA 2 mM
Method: (§1) Cell viability was typically assessed in 384-well format by Alamar Blue (Invitrogen) fluorescence (ex/em 530/590) measured on a Victor3 platereader (Perkin Elmer, Waltham, Mass.). In some experiments, Trypan Blue dye exclusion counting was performed using an automated cell counter (ViCell, Beckman-Coulter Inc., Brea, Calif.). Cell viability in test conditions is reported as a percentage relative to the negative control treatment.
Phase contrast images were acquired using an AMG EVOS FL (Advanced Microscopy Group) microscope equipped with a 10× phase-contrast objective. Three independent fields were acquired for each experimental condition. Representative samples from one field of view are shown.

[1] = tested on: HT-1080, BJeLR and Calu-1 cells; assay: Modulatory profiling of small molecule cell death inhibitors against erastin; assay type: cell-based, human; settings: erastin 10 μM, 24 hours, 10-point, 4-fold dilution series
Method: The day before the experiment, cells were seeded in black, 384-well clear bottom plates (Corning) at a density of 1,000 cells/well using a Beckman Biomek FX Workstation. All compounds (except 3-methyladenine and chloroquine, which were diluted in water) were diluted in DMSO at 250 times the final highest test concentration, and aliquoted across a 384-well plate (Greiner, Monroe, N.C.). A ten-point, 4-fold dilution series of each inhibitor in DMSO was made using a multichannel pipette. Replicates of this mother plate were stored at −20° C. […] Medium was removed from cells and replaced with 36 μL medium containing DMSO (0.1%) or erastin (10 μM final concentration). Using the Biomek FX, 4 μL were then transferred from each inhibitor daughter plate into the DMSO-containing or erastin-containing assay plates. For 3-methyladenine and chloroquine, inhibitors were prepared fresh in media at 10-fold the final concentration in the presence of DMSO or 10 μM erastin. These solutions were manually pipetted onto cells in 384-well format. Assay plates were incubated at 37° C. for 24 hours. Viability was assessed using Alamar Blue.
The modulatory effect (Me) for drug-drug interactions was computed as follows. First, plate-based background correction was performed using Alamar Blue values from empty (cell-free) wells included on each plate. Next, within each experiment, 100% viability is determined as the average Alamar Blue score for cells treated with modulator=DMSO and lethal=DMSO, and all Alamar Blue values were scaled from 0 to 1 with the DMSO×DMSO condition=1. The individual effects of each modulator and lethal (e.g. in the presence of DMSO) at all tested doses were then ascertained. […] Next, BExp was compared to the actual observed viability. […] By default, Me in DMSO-treated cells is equal to 0. […] Me values for each inhibitor-lethal drug combination were hierarchically clustered and plotted as a heatmap using the heatmaps.2 function of the gplots library in R.

[2] = tested on: rat organotypic hippocampal slice culture (OHSC); assay: Glutamate-induced excitotoxic cell death in organotypic hippocampal slice cultures (PI uptake); assay type: cell-based; settings: 5 mM L-glutamate 3 hours; 24 hours after; DG, CA1, CA3; Fer-1 2 μM, CPX 5 μM, MK-801 10 μM
Method: OHSCs were cultured as previously described (Morrison et al., 2002) with approval from Columbia University's Institutional Animal Care and Use Committee (IACUC). Briefly, Sprague Dawley rat pups (P8-P10) were rapidly decapitated, and the hippocampus placed in ice-cold Gey's balanced salt solution (Sigma). 400 μm thick sections were cut using a Mcllwain tissue chopper and immediately plated on Millicell cell culture inserts (Millipore, Billerica, Mass.) in Neurobasal (Invitrogen) media supplemented with B27 (1×, Invitrogen), GlutaMAX (1 mM, Invitrogen), and D-glucose (4.5 mg/mL, Sigma) at 37° C. and 5% CO2. After 2 days in vitro (DIV), the media was changed to medium containing serum comprised of 50% DMEM (Sigma), 25% heat-inactivated horse serum (Sigma), 25% Hank's balanced salt solution (Sigma), GlutaMAX (1 mM, Invitrogen), and D-glucose (4.5 mg/mL, Sigma). Medium was changed every 2-3 days.
After 10-14 DIV, OBSCs were exposed to an excitotoxic injury consisting of a 3 hour exposure to 5 mM L-glutamate in SFM (Morrison et al., 2002). Only healthy OHSCs defined as those with less than 5% cell death in all regions of the hippocampus (DG, CA3, CA1) pre-injury were used for experiments. After the 3 hour exposure, the cultures were placed in fresh serum free media (SFM) containing 75% DMEM, 25% Hank's balanced salt solution, GlutaMAX (1 mM), D-glucose (4.5 mg/mL) until cell death was quantified at 24 hours. If drugs were added, they were added at the same time as glutamate.
Quantification of cell death has been described previously (Cater et al., 2007; Morrison et al., 2002). Brightfield images of the hippocampal cultures were taken before injury for identification of regions of interest (ROI) including the dentate gyrus (DG), CA3 and CA1. Propidium iodide (PI, Invitrogen) was used as a fluorescent signal for cell death, and images were taken before the induction of injury and 24 hours following injury. […] Percentage cell death was expressed as the number of pixels in the ROI above a threshold in the PI fluorescent image divided by the total number of pixels in the ROI.

[3] = 2,2-diphenyl-1-picrylhydrazyl (DPPH) assay, cell-free antioxidant potential; settings: test compound 0.05 mM, absorbance at 517 nm
Method: The stable radical DPPH (Blois, 1958) was dissolved in methanol to a final concentration of 0.05 mM. 1 mL of DPPH solution was added to 2 μL of each test compound dissolved in DMSO. The final concentration of each test compound was 0.05 mM. Samples were inverted several times and allowed to incubate at room temperature for 10 minutes. Samples were then aliquoted to white 96-well solid-bottom dishes (Corning) and absorbance at 517 nm was recorded using a TECAN M200 plate reader. All values were normalized to background (methanol only). The experiment was repeated twice. Results within each trial normalized to DMSO (=1.0), then averaged across trials.

[4] = tested on: erastin (10 μM)-treated HT-1080 cells; assay: Inhibition of death in erastin (10 μM)-treated HT-1080 cells, viability by Alamar Blue; assay type: cell-based, human; settings: for EC50: Homo sapiens, HT-1080, inhibition of death in erastin (10 μM)-treated HT-1080 cells, Alamar Blue, from dose response curves; for ability to prevent erastin-induced death: erastin 10 μM, HT-1080 cells
Method: as §1
Flow cytometry data was analyzed using FloJo (9.3.2, Tree Star, Inc., Ashland, Oreg.). Chemical structures were drawn using ChemDraw Ultra (Cambridgesoft, Cambridge, Mass.). Computational determination of log P (Slog P function) was performed using MOE 2010.10 (Chemical Computing Group, Montreal, […].). Viability data was analyzed using Excel (Microsoft Corp., […].). Summary data and heatmaps were generated using R. Dose-response curves were computed by 4-parameter logistic regression in Prism 5.0c (GraphPad Software). Images were manipulated using Photoshop CS4 and Illustrator CS4 (Adobe, San Jose, Calif.).
The ability of various compounds disclosed herein to inhibit death in erastin (10 μM)-treated HT-1080 cells were tested. Cell viability was assessed by Alamar Blue. EC50 values (nM) were computed from dose response curves.

[5] = tested on: ROS production in HT-1080 cells; assay: Analysis of reactive oxygen species production by flow cytometry (H2DCFDA, C11-BODIPY, MitoSOX); assay type: cell-based, human
Method: The day before the experiment, 200,000 cells/well were seeded in 6-well dishes (Corning Inc., Corning, N.Y.). […] Data was collected from the FL1 (H2DCFDA, C11-BODIPY) or FL2 channel (MitoSOX). A minimum of 10,000 cells were analyzed per condition.

Compound: c1ccc(-c2ccccn2)nc1 [2,2-bipyridyl]
- protection from death on late addition (HT-1080 cells): substantial protection from death

Compound: Cn1cnc(N)c2ncnc1-2 [3-methyladenine]
- modulation of erastin-induced death [1]: not consistently modulated

Compound: CCCC[C@@H](C=O)NC(=O)[C@H](CC(C)C)NC(=O)[C@H](CC(C)C)NC(C)=O [ALLN] (Ac-Leu-Leu-[Nle]-aldehyde)
- modulation of erastin-induced death [1]: not consistently modulated

Compound: NOCC(=O)O [AOA, aminooxyacetic acid]
- effect on erastin-induced ferroptosis (glutamine metabolism modulators) (HT-1080 cells): rescued

Compound: CC(=O)OCOC(=O)CN(CC(=O)OCOC(C)=O)c1ccccc1OCCOc1ccccc1N(CC(=O)OCOC(C)=O)CC(=O)OCOC(C)=O [BAPTA-AM]
- effect of co-treatment on erastin-induced death (HT-1080 cells): had no effect on erastin-induced death

Compound: Cc1cc(C2CCCCC2)n(O)c(=O)c1 [CPX, ciclopirox olamine]
- glutamate-induced cell death (PI uptake) [2]: attenuated significantly and to an almost identical extent

Compound: O=C(O)C(Cl)Cl [DCA, dichloroacetic acid]
- effect on erastin-induced ferroptosis (glutamine metabolism modulators) (HT-1080 cells): had no effect

Compound: COC(=O)CCC(=O)C(=O)OC [DMK, dimethyl alphaketoglutarate]
- effect on erastin-induced ferroptosis (glutamine metabolism modulators) (HT-1080 cells): lethality of erastin was restored

Compound: CCOC(=O)[C@H]1O[C@@H]1C(=O)N[C@@H](CC(C)C)C(=O)NCCC(C)C [E64d]
- modulation of erastin-induced death [1]: not consistently modulated

Compound: O=C(O)CN(CCOCCOCCN(CC(=O)O)CC(=O)O)CC(=O)O [EGTA]
- effect of co-treatment on erastin-induced death (HT-1080 cells): had no effect on erastin-induced death

Compound: Cc1ccc(N(CC(=O)O)CC(=O)O)c(OCCOc2cc3cc(-c4ncc(C(=O)O)o4)oc3cc2N(CC(=O)O)CC(=O)O)c1 [Fura-2]
- effect of co-treatment on erastin-induced death (HT-1080 cells): had no effect on erastin-induced death

Compound: C[C@]12N[C@H](Cc3ccccc31)c1ccccc12 [MK-801]
- glutamate-induced cell death (PI uptake) [2]: attenuated significantly and to an almost identical extent

Compound: CCOC(=O)c1ccc(NC2CCCCC2)c([N+](=O)[O-])c1 [SRS8-24, ethyl 4-(cyclohexylamino)-3-nitrobenzoate]
- intrinsic antioxidant capability (DPPH) [3]: destroyed the antioxidant capability
- EC50 [4]: > 10000 nM
- ability to prevent erastin-induced death [4]: destroyed the antioxidant capability of Fer-1, as well as its ability to prevent erastin (10 μM)-induced death

Compound: CCOC(=O)c1ccc(NC2CC2)c(N)c1 [SRS8-72, ethyl 3-amino-4-(cyclopropylamino)benzoate]
- intrinsic antioxidant capability (DPPH) [3]: retained equivalent intrinsic antioxidant capability
- EC50 [4]: 880 nM
- ability to prevent erastin-induced death [4]: an order of magnitude less potent than Fer-1

Compound: N#CC(=C(/N)Sc1ccccc1N)/C(C#N)=C(\N)Sc1ccccc1N [U0126]
- protection from death on late addition (HT-1080 cells): substantial protection from death
- modulation of erastin-induced death [1]: rescued from erastin-induced death
- effect on erastin-induced ROS accumulation [5]: prevented the accumulation of H2DCFDA-sensitive ROS

Compound: CO/C1=C\C(C)=C\[C@@H](C)[C@@H](O)[C@@H](C)C/C(C)=C/C=C/[C@H](OC)[C@@H]([C@@H](C)[C@@H](O)[C@H](C)[C@@]2(O)C[C@@H](O)[C@H](C)[C@@H](C(C)C)O2)OC1=O [bafilomycin A1]
- modulation of erastin-induced death [1]: not consistently modulated

Compound: CCN(CC)CCCC(C)Nc1ccnc2cc(Cl)ccc12 (centres unmarked) [chloroquine]
- modulation of erastin-induced death [1]: not consistently modulated

Compound: CN1C(=O)C(Cc2c[nH]c3ccccc23)NC1=S (centres unmarked) [necrostatin-1]
- modulation of erastin-induced death [1]: not consistently modulated

Compound: C=C(C)[C@H]1Cc2c(ccc3c2O[C@@H]2COc4cc(OC)c(OC)cc4[C@@H]2C3=O)O1 [rotenone]
- MitoSOX-sensitive mitochondrial ROS production ([5]; HT-1080 cells, 6 hours, erastin 10 μM, rotenone 250 nM): enhanced MitoSOX-sensitive ROS production

Compound: Cc1c(C)c2c(c(C)c1O)CCC(C)(C(=O)O)O2 (centres unmarked) [trolox]
- protection from death on late addition (HT-1080 cells): substantial protection from death
- modulation of erastin-induced death [1]: rescued from erastin-induced death
- effect on erastin-induced ROS accumulation ([5]; erastin 10 μM, HT-1080 cells, H2DCFDA, C11-BODIPY): prevented the accumulation of H2DCFDA-sensitive ROS

Compound: COC(=O)C[C@H](NC(=O)[C@H](C)NC(=O)[C@@H](NC(=O)OCc1ccccc1)C(C)C)C(=O)CF [z-VAD-fmk] (Cbz-Val-Ala-Asp(OMe)-CH2F)
- modulation of erastin-induced death [1]: not consistently modulated
